Test results as given in patent US11370774B2, “Substituted benzofuran, benzopyrrole, benzothiophene, and structurally related complement inhibitors” (BioCryst Pharmaceuticals, Inc., priority 2018, dated 2022).

molecular target: Factor D (Homo sapiens (Human), UniProt P00746); test: Factor D esterolytic assay (Z-Lys-SBzl substrate, DTNB, 405 nm); assay type: biochemical; details: Z-Lys-SBzl 1.29 mM, pH 7.5, 10% DMSO, tested a minimum of three times, read-out: Measured Ki (IC50) Value for Compounds: IC50
Sequence (P00746 26-253): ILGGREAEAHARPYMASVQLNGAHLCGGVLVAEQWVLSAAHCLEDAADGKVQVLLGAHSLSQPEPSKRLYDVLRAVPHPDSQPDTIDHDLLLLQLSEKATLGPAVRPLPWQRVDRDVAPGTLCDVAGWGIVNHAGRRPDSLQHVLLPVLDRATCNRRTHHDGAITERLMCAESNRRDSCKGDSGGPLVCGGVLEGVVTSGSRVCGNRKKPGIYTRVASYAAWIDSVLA
In short: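 Thioester hydrolysis (Z-Lys-SBzl, 1.29 mM) by human Factor D ([…]) detected through DTNB color at 405 nm over 600 sec, minus 690 nm background. Buffer: 100 mM HEPES pH 7.5, 500 mM NaCl, 10% DMSO; optional room-temperature preincubation before substrate. IC50 derived from percent rate inhibition; at least three runs.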

**Q.** Which IC50 does the source give for `NCc1cccc(-c2cc(COc3cc(F)ccc3CC(=O)O)cc3c(C(F)(F)F)coc23)c1` [Compound 486c, 2-(2-((7-(3-(aminomethyl)phenyl)-3-(trifluoromethyl)benzofuran-5-yl)methoxy)-4-fluorophenyl)acetic acid] here?
**A.** < 1 µM

**Q.** `NCc1cccc(-c2cc(COc3ccccc3CC(=O)O)cc3cc(C(N)c4ccccc4)oc23)c1` (single isomer, unassigned; (+)) [Compound 460d, (+)-2-(2-((2-(amino(phenyl)methyl)-7-(3-(aminomethyl)phenyl)benzofuran-5-yl)methoxy)phenyl)acetic acid] was tested. Which IC50 did it give?
**A.** < 1 µM

**Q.** With `COc1ccc(CC(=O)O)c(OCc2cc(-c3cccc(CN)c3F)c3occ(C(F)(F)F)c3c2)c1` [Compound 489b, 2-(2-((7-(3-(aminomethyl)-2-fluorophenyl)-3-(trifluoromethyl)benzofuran-5-yl)methoxy)-4-methoxyphenyl)acetic acid] as the compound, how does the IC50 read?
**A.** < 1 µM

**Q.** For `Cc1ccc(CC(=O)O)c(OCc2cc(-c3ccnc(CN)c3)c3ccn(C)c3c2)c1` [Compound 367c, 2-(2-((4-(2-(aminomethyl)pyridin-4-yl)-1-methyl-1H-indol-6-yl)methoxy)-4-methylphenyl)acetic acid], which IC50 is on record?
**A.** < 1 µM

**Q.** With `Cn1ccc2c(-c3cccc(CN)c3)cc(C(=O)Nc3ccccc3CC(=O)O)cc21` [Compound 45e, 2-(2-(4-(3-(aminomethyl)phenyl)-1-methyl-1H-indole-6-carboxamido)phenyl)acetic acid] as the compound, how does the IC50 read?
**A.** < 1 µM

**Q.** Which IC50 does the source give for `NCc1cccc(-c2cc(COc3ccccc3CC(=O)O)cc3c2ccn3CC2CC2)c1` [Compound 148e, 2-(2-((4-(3-(aminomethyl)phenyl)-1-(cyclopropylmethyl)-1H-indol-6-yl)methoxy)phenyl)acetic acid] here?
**A.** < 1 µM

**Q.** Which IC50 does the source give for `CC(C)n1ccc2c(-c3ccnc(CN)c3)cc(COc3cc(F)ccc3CC(=O)O)cc21` [Compound 496c, 2-(2-((4-(2-(aminomethyl)pyridin-4-yl)-1-isopropyl-1H-indol-6-yl)methoxy)-4-fluorophenyl)acetic acid] here?
**A.** < 1 µM

**Q.** How did the IC50 turn out when `NCc1cccc(-c2cc(COc3ccccc3CC(=O)O)cc3cc(COCc4ccccc4)oc23)c1` [Compound 284f, 2-(2-((7-(3-(aminomethyl)phenyl)-2-((benzyloxy)methyl)benzofuran-5-yl)methoxy)phenyl)acetic acid] was run?
**A.** < 1 µM

**Q.** How did the IC50 turn out when `C[C@@H](N)c1cccc(-c2nc(C(=O)Nc3ccccc3CC(=O)O)c3cccn3n2)c1F` [Compound 33f, (R)-2-(2-(2-(3-(1-aminoethyl)-2-fluorophenyl)pyrrolo[2,1-f][1,2,4]triazine-4-carboxamido)phenyl)acetic acid] was run?
**A.** < 1 µM

**Q.** With `NCc1cccc(-c2cc(COc3ccccc3CC(=O)O)cc3c2ccn3C(F)(F)F)c1F` [Compound 518b, 2-(2-((4-(3-(aminomethyl)-2-fluorophenyl)-1-(trifluoromethyl)-1H-indol-6-yl)methoxy)phenyl)acetic acid] as the compound, how does the IC50 read?
**A.** < 1 µM

**Q.** Which IC50 does the source give for `Cc1ccc(CC(=O)O)c(OCc2cc(-c3ccnc(CN)c3F)c3occc3c2)c1` [Compound 272e, 2-(2-((7-(2-(aminomethyl)-3-fluoropyridin-4-yl)benzofuran-5-yl)methoxy)-4-methylphenyl)acetic acid] here?
**A.** < 1 µM

**Q.** For `NCc1cc(-c2c(F)c(COc3ccccc3CC(=O)O)cc3ccoc23)ccn1` [Compound 519c, 2-(2-((7-(2-(aminomethyl)pyridin-4-yl)-6-fluorobenzofuran-5-yl)methoxy)phenyl)acetic acid], which IC50 is on record?
**A.** < 1 µM

**Q.** How did the IC50 turn out when `C[C@@H](N)c1cccc(-c2nc(C(=O)Nc3ccccc3CC(=O)O)c3cccn3n2)c1` [Compound 4e, (R)-2-(2-(2-(3-(1-aminoethyl)phenyl)pyrrolo[2,1-f][1,2,4]triazine-4-carboxamido)phenyl)acetic acid] was run?
**A.** < 1 µM

**Q.** Which IC50 does the source give for `COc1ccc(CC(=O)O)c(OCc2cc(-c3cccc(CN)c3F)c3oc(F)cc3c2)c1` [Compound 481b, 2-(2-((7-(3-(aminomethyl)-2-fluorophenyl)-2-fluorobenzofuran-5-yl)methoxy)-4-methoxyphenyl)acetic acid] here?
**A.** < 1 µM

**Q.** For `CCCc1cc2cc(COc3ccccc3CC(=O)O)cc(-c3ccnc(CN)c3)c2o1` [Compound 189c, 2-(2-((7-(2-(aminomethyl)pyridin-4-yl)-2-propylbenzofuran-5-yl)methoxy)phenyl)acetic acid], which IC50 is on record?
**A.** < 1 µM

**Q.** For `NC(=O)c1cccc(-c2cc(COc3ccccc3CC(=O)O)cc3ccoc23)c1` [Compound 85d, 2-(2-((7-(3-carbamoylphenyl)benzofuran-5-yl)methoxy)phenyl)acetic acid], which IC50 is on record?
**A.** 1 to 10 µM

**Q.** Which IC50 does the source give for `Cc1oc2c(-c3cccc(CN)c3)cc(COc3ccccc3CC(=O)O)cc2c1Br` [Compound 425f, 2-(2-((7-(3-(aminomethyl)phenyl)-3-bromo-2-methylbenzofuran-5-yl)methoxy)phenyl)acetic acid] here?
**A.** < 1 µM

**Q.** Which IC50 does the source give for `NCc1cccc(-c2cc(COc3cc(-c4ccco4)ccc3CC(=O)O)cc3ccoc23)c1` [Compound 318c, 2-(2-((7-(3-(aminomethyl)phenyl)benzofuran-5-yl)methoxy)-4-(furan-2-yl)phenyl)acetic acid] here?
**A.** < 1 µM

**Q.** `COc1ccc(CC(=O)O)c(OCc2cc(-c3cccc(CN)c3)c3occc3c2F)c1` [Compound 384c, 2-(2-((7-(3-(aminomethyl)phenyl)-4-fluorobenzofuran-5-yl)methoxy)-4-methoxyphenyl)acetic acid] was tested. Which IC50 did it give?
**A.** < 1 µM

**Q.** For `N#Cc1cccc(C(=O)NCc2cc3cc(COc4ccccc4CC(=O)O)cc(-c4cccc(CN)c4)c3o2)c1` [Compound 295c, 2-(2-((7-(3-(aminomethyl)phenyl)-2-((3-cyanobenzamido)methyl)benzofuran-5-yl)methoxy)phenyl)acetic acid], which IC50 is on record?
**A.** < 1 µM

**Q.** For `COc1ccc(CC(=O)O)c(OCc2cc(-c3ccnc(CN)c3)c3occc3c2)c1` [Compound 482b, 2-(2-((7-(2-(aminomethyl)pyridin-4-yl)benzofuran-5-yl)methoxy)-4-methoxyphenyl)acetic acid], which IC50 is on record?
**A.** < 1 µM

**Q.** How did the IC50 turn out when `NCc1cccc(-c2cc(C(=O)Nc3ccccc3CC(=O)O)cc3c2CCC3)c1` [Compound 160e, 2-(2-(7-(3-(aminomethyl)phenyl)-2,3-dihydro-1H-indene-5-carboxamido)phenyl)acetic acid] was run?
**A.** < 1 µM

**Q.** With `CC(C)n1ccc2c(-c3cccc(CN)c3F)cc(COc3ccccc3CC(=O)O)cc21` [Compound 111b, 2-(2-((4-(3-(aminomethyl)-2-fluorophenyl)-1-isopropyl-1H-indol-6-yl)methoxy)phenyl)acetic acid] as the compound, how does the IC50 read?
**A.** < 1 µM

**Q.** With `NCc1cccc(-c2cc(COc3ccccc3CC(=O)O)cc3c2ccn3-c2ccccc2)c1` [Compound 351f, 2-(2-((4-(3-(aminomethyl)phenyl)-1-phenyl-1H-indol-6-yl)methoxy)phenyl)acetic acid] as the compound, how does the IC50 read?
**A.** < 1 µM

**Q.** For `NCc1cccc(-c2cc(COc3ccccc3CC(=O)O)cc3cc(-c4ccccc4)oc23)c1` [Compound 374f, 2-(2-((7-(3-(aminomethyl)phenyl)-2-phenylbenzofuran-5-yl)methoxy)phenyl)acetic acid], which IC50 is on record?
**A.** < 1 µM

**Q.** With `N#Cc1ccc(-c2ccc(CC(=O)O)c(OCc3cc(-c4cccc(CN)c4)c4occc4c3)c2)s1` [Compound 324c, 2-(2-((7-(3-(aminomethyl)phenyl)benzofuran-5-yl)methoxy)-4-(5-cyanothiophen-2-yl)phenyl)acetic acid] as the compound, how does the IC50 read?
**A.** < 1 µM
